Read-outs that look alike come from different tables or passages of the source.
Experiments:
full-length human CSNK1D = target: T1, full-length human CSNK1D (Homo sapiens, UniProt P48730); experiment: CSNK1D Assay (ADP-Glo, 1 μM ATP); assay type: biochemical; details: Table 3, read-out: CSNK1D IC50 [mol/l] (median)
T1 construct: N-terminal Glutathion-S-Transferase (GST) and full-length human CSNK1D; purchased Life Technologies PV3665; host or cells: baculovirus infected insect cells
Outline: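 Enzyme is N-terminal GST-tagged full-length human CSNK1D from baculovirus-infected insect cells (typically about 0.5 ng/μL), with a biotinylated peptide substrate and 1 μM ATP. Compound pre-incubated 15 min at 22° C in HEPES pH 7.5 buffer; ADP formed is read by ADP-Glo luminescence.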

[1] = target: T2, wild-type Epidermal Growth Factor Receptor (EGFR) (Homo sapiens, UniProt P00533); experiment: WT-EGFR Kinase Assay (TR-FRET, 2 mM ATP); assay type: biochemical
T2 construct: a fragment of human EGFR (amino acids R669 to A1210); made in house; host or cells: Sf9 insect cells
Outline: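 GST-fused human EGFR fragment (R669-A1210) from Sf9 cells, typically 7.6 pg/μL, pre-incubated with compound 15 min at 22° C in Hepes pH 7.0 buffer with MgCl2, DTT and vanadate; biotinylated peptide substrate. After EDTA stop, phosphopeptide detected by TR-FRET (anti-phosphotyrosine Tb-cryptate/streptavidin-XL665), 665/620 nm emission ratio.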

[2] = EGFR Wildtyp 2 mM ATP IC50 [mol/l] (median), Table 4
[3] = read-out: EGFR Wildtyp 2 mM ATP IC50 [mol/l] (median), Table 4

T2 sequence (P00533 669-1210): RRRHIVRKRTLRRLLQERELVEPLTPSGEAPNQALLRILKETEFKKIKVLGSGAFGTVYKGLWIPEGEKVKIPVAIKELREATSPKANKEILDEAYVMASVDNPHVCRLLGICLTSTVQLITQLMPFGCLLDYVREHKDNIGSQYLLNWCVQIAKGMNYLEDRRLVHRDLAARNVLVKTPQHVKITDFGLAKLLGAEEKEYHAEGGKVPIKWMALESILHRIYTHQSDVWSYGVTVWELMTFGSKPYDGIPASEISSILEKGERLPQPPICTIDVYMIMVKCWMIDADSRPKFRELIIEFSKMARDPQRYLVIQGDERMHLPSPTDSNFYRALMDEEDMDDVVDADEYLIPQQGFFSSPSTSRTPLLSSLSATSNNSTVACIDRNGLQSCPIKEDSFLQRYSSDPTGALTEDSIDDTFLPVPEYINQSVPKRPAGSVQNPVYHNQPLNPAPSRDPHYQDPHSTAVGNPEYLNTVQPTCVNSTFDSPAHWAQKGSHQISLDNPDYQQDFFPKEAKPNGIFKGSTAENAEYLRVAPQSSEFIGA
T1 sequence (P48730 whole entry): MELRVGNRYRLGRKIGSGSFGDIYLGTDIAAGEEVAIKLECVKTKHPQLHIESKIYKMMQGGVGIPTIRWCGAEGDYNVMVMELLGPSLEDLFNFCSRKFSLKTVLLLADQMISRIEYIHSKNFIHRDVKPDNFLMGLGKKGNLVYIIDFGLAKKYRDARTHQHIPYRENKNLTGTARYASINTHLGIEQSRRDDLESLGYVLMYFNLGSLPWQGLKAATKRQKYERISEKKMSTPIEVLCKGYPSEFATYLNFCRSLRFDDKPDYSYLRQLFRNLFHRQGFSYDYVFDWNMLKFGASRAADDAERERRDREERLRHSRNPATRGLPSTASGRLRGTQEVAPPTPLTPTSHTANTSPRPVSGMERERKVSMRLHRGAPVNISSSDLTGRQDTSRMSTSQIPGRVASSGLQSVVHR

Row | Structure (SMILES) | IC50 (full-length human CSNK1D) [nM] | IC50 [1, 2] [nM] | IC50 [1, 3] [nM]
1 | O=C(Nc1cc(-c2[nH]c3cccnc3c2-c2ncccn2)ccn1)C(CC(F)F)c1ccc(F)cc1 (racemic) [Example 112, (2RS)-4,4-difluoro-2-(4-fluorophenyl)-N-[4-(3-pyrimidin-2-yl-1H-pyrrolo[3,2-b]pyridin-2-yl)-2-pyridyl]butanamide] | 16.9 | > 20000 | 
2 | O=C(Nc1cc(-c2[nH]c3cc(F)cnc3c2-c2ccccn2)ccn1)C(CC(F)F)c1ccc(F)cc1 (single isomer, unassigned; (-)) [Example 18, (−)-4,4-difluoro-2-(4-fluorophenyl)-N-{4-[6-fluoro-3-(pyridin-2-yl)-1H-pyrrolo[3,2-b]pyridin-2-yl]pyridin-2-yl}butanamide] | 25.4 |  | > 20000
3 | O=C(Nc1cc(-c2[nH]c3ccc(F)nc3c2-c2cc(F)ccn2)ccn1)C(CC(F)F)c1ccc(F)cc1 (single isomer, unassigned) [Example 96, (2R or S)-4,4-difluoro-N-{4-[5-fluoro-3-(4-fluoropyridin-2-yl)-1H-pyrrolo[3,2-b]pyridin-2-yl]pyridin-2-yl}-2-(4-fluorophenyl)butanamide] | 10.4 | > 20000 | 
4 | O=C(Nc1cc(-c2[nH]c3cc(F)cnc3c2-c2ccccc2)ccn1)C(CC(F)F)c1ccc(F)cc1 (single isomer, unassigned; (+)) [Example 21, (+)-4,4-difluoro-2-(4-fluorophenyl)-N-[4-(6-fluoro-3-phenyl-1H-pyrrolo[3,2-b]pyridin-2-yl)pyridin-2-yl]butanamide] | 3.59 |  | > 20000
5 | Cc1cc2[nH]c(-c3ccnc(NC(=O)C(CC(F)F)c4ccc(F)cc4)c3)c(-c3ccccn3)c2nc1F (single isomer, unassigned) [Example 35, 4,4-difluoro-N-{4-[5-fluoro-6-methyl-3-(pyridin-2-yl)-1H-pyrrolo[3,2-b]pyridin-2-yl]pyridin-2-yl}-2-(4-fluorophenyl)butanamide] | 3.7 |  | > 20000
6 | O=C(Nc1cc(-c2[nH]c3c(C4CCCO4)cc(F)nc3c2-c2ccccn2)ccn1)C(CC(F)F)c1ccc(F)cc1 (single isomer, unassigned) [Example 116, (2R or S)-4,4-difluoro-N-(4-{5-fluoro-7-[(2R or S)-oxolan-2-yl]-3-(pyridin-2-yl)-1H-pyrrolo[3,2-b]pyridin-2-yl}pyridin-2-yl)-2-(4-fluorophenyl)butanamide] | 4.25 | 15100 | 
7 | O=C(Nc1cc(-c2[nH]c3c(OC[C@H]4COCCO4)cc(F)nc3c2-c2ccccn2)ccn1)C(CC(F)F)c1ccc(F)cc1 (mixture of isomers) [Example 50, (2RS)—N-{4-[7-{[(2R)-1,4-dioxan-2-yl]methoxy}-5-fluoro-3-(pyridin-2-yl)-1H-pyrrolo[3,2-b]pyridin-2-yl]pyridin-2-yl}-4,4-difluoro-2-(4-fluorophenyl)butanamide] | 9.03 | > 20000 | 
8 | O=C(Nc1cc(-c2[nH]c3c(C4CCCO4)cc(F)nc3c2-c2ccccn2)ccn1)C(CC(F)F)c1ccc(F)cc1 (racemic) [Example 114, (2RS)-4,4-difluoro-2-(4-fluorophenyl)-N-(4-{5-fluoro-3-(pyridin-2-yl)-7-[(2RS)-tetrahydrofuran-2-yl]-1H-pyrrolo[3,2-b]pyridin-2-yl}pyridin-2-yl)butanamide] | 8.03 | > 20000 | 
9 | O=C(Nc1cc(-c2[nH]c3nccnc3c2-c2ccccn2)ccn1)C(CC(F)(F)F)c1ccc(F)cc1 (racemic) [Example 119, (2RS)-4,4,4-trifluoro-2-(4-fluorophenyl)-N-{4-[7-(pyridin-2-yl)-5H-pyrrolo[2,3-b]pyrazin-6-yl]pyridin-2-yl}butanamide] | 7.07 | > 20000 | 
10 | O=C(Nc1cc(-c2[nH]c3cccnc3c2-c2cccc(F)n2)ccn1)C(CC(F)F)c1ccc(F)cc1 (racemic) [Example 25, 4,4-difluoro-2-(4-fluorophenyl)-N-{4-[3-(6-fluoropyridin-2-yl)-1H-pyrrolo[3,2-b]pyridin-2-yl]pyridin-2-yl}butanamide] | 7.87 | > 20000 | 
11 | Cc1cc(F)nc2c(-c3ccccn3)c(-c3ccnc(NC(=O)C(CC(F)F)c4ccc(F)cc4)c3)[nH]c12 (single isomer, unassigned; (-)) [Example 38, (−)-4,4-difluoro-N-{4-[5-fluoro-7-methyl-3-(pyridin-2-yl)-1H-pyrrolo[3,2-b]pyridin-2-yl]pyridin-2-yl}-2-(4-fluorophenyl)butanamide] | 3.8 | > 20000 | 
12 | O=C(Nc1cc(-c2[nH]c3cccnc3c2-c2ccccn2)ccn1)C(CC(F)F)c1ccc(F)cc1 (single isomer, unassigned; (-)) [Example 12, (−)-4,4-difluoro-2-(4-fluorophenyl)-N-{4-[3-(pyridin-2-yl)-1H-pyrrolo[3,2-b]pyridin-2-yl]pyridin-2-yl}butanamide] | 12.4 |  | > 20000
13 | O=C(Nc1cc(-c2[nH]c3cc(F)cnc3c2-c2ccccn2)ccn1)C(CC(F)F)c1ccc(F)cc1 (racemic) [Example 16, 4,4-difluoro-2-(4-fluorophenyl)-N-{4-[6-fluoro-3-(pyridin-2-yl)-1H-pyrrolo[3,2-b]pyridin-2-yl]pyridin-2-yl}butanamide] | 4.57 | > 20000 | 
14 | O=C(Nc1cc(-c2[nH]c3cc(F)cnc3c2-c2ccccc2)ccn1)C(CC(F)F)c1ccc(F)cc1 (single isomer, unassigned; (-)) [Example 20, (−)-4,4-difluoro-2-(4-fluorophenyl)-N-[4-(6-fluoro-3-phenyl-1H-pyrrolo[3,2-b]pyridin-2-yl)pyridin-2-yl]butanamide] | 47.8 | > 20000 | 
15 | O=C(Nc1cc(-c2[nH]c3c(OCC4CC4)ncnc3c2-c2ccccn2)ccn1)C(CC(F)F)c1ccc(F)cc1 (single isomer, unassigned) [Example 130, (2R or S)—N-{4-[4-(cyclopropylmethoxy)-7-(pyridin-2-yl)-5H-pyrrolo[3,2-d]pyrimidin-6-yl]pyridin-2-yl}-4,4-difluoro-2-(4-fluorophenyl)butanamide] | 55.8 | 6670 | 
16 | O=C(Nc1cc(-c2[nH]c3cncnc3c2-c2ccccn2)ccn1)C(CC(F)F)c1ccc(F)cc1 (single isomer, unassigned; (-)) [Example 14, (−)-4,4-difluoro-2-(4-fluorophenyl)-N-{4-[7-(pyridin-2-yl)-5H-pyrrolo[3,2-d]pyrimidin-6-yl]pyridin-2-yl}butanamide] | 28.5 | > 20000 | 
17 | Cc1cc2[nH]c(-c3ccnc(NC(=O)C(CC(F)F)c4ccc(F)cc4)c3)c(-c3ccccn3)c2nc1F (racemic) [Example 33, (rac)-4,4-difluoro-N-{4-[5-fluoro-6-methyl-3-(pyridin-2-yl)-1H-pyrrolo[3,2-b]pyridin-2-yl]pyridin-2-yl}-2-(4-fluorophenyl)butanamide] | 37.3 | > 20000 | 
18 | O=C(Nc1cc(-c2[nH]c3cccnc3c2-c2ccccn2)ccn1)C(CC(F)F)c1ccc(F)cc1 (single isomer, unassigned; (+)) [Example 11, (+)-4,4-difluoro-2-(4-fluorophenyl)-N-{4-[3-(pyridin-2-yl)-1H-pyrrolo[3,2-b]pyridin-2-yl]pyridin-2-yl}butanamide] | 2.57 | > 20000 | 
19 | O=C(Nc1cc(-c2[nH]c3c(C4CCCO4)cc(F)nc3c2-c2ccccn2)ccn1)C(CC(F)F)c1ccc(F)cc1 (single isomer, unassigned) [Example 117, (2R or S)-4,4-difluoro-N-(4-{5-fluoro-7-[(2R or S)-oxolan-2-yl]-3-(pyridin-2-yl)-1H-pyrrolo[3,2-b]pyridin-2-yl}pyridin-2-yl)-2-(4-fluorophenyl)butanamide] | 28 | > 20000 | 
20 | O=C(Nc1cc(-c2[nH]c3nccnc3c2-c2ccccn2)ccn1)C(CC(F)(F)F)c1ccc(F)cc1 (single isomer, unassigned) [Example 121, (2R or S)-4,4,4-trifluoro-2-(4-fluorophenyl)-N-{4-[7-(pyridin-2-yl)-5H-pyrrolo[2,3-b]pyrazin-6-yl]pyridin-2-yl}butanamide] | 62.9 |  | > 20000
21 | O=C(Nc1cc(-c2[nH]c3cc(F)cnc3c2-c2ccccc2)ccn1)C(CC(F)F)c1ccc(F)cc1 (racemic) [Example 19, 4,4-difluoro-2-(4-fluorophenyl)-N-[4-(6-fluoro-3-phenyl-1H-pyrrolo[3,2-b]pyridin-2-yl)pyridin-2-yl]butanamide] | 6.92 | > 20000 | 
22 | O=C(Nc1cc(-c2[nH]c3cccnc3c2-c2ccccc2)ccn1)C(CC(F)F)c1ccc(F)cc1 (racemic) [Example 22, 4,4-difluoro-2-(4-fluorophenyl)-N-[4-(3-phenyl-1H-pyrrolo[3,2-b]pyridin-2-yl)pyridin-2-yl]butanamide] | 3.18 | > 20000 | 
23 | O=C(Nc1cc(-c2[nH]c3c(OCC(F)(F)F)ncnc3c2-c2ccccn2)ccn1)C(CC(F)F)c1ccc(F)cc1 (single isomer, unassigned) [Example 123, (2R or S)-4,4-difluoro-2-(4-fluorophenyl)-N-{4-[7-(pyridin-2-yl)-4-(2,2,2-trifluoroethoxy)-5H-pyrrolo[3,2-d]pyrimidin-6-yl]pyridin-2-yl}butanamide] | 4.49 | > 20000 | 

Reference: US12692261B2, “Substituted heterocyclic compounds and therapeutic uses thereof” (Bayer Aktiengesellschaft, priority 2020, dated 2026)
